Test results: paper PMC11229689, “In Vitro Selection of Macrocyclic L-α/D-α/β/γ-Hybrid Peptides Targeting IFN-γ/IFNGR1 Protein–Protein Interaction” (Journal of the American Chemical Society, 2024)
Like-named read-outs stand apart in the source and are kept apart here. *1 amine or outer side, *2 acyl side, *3 side chain or, on linkers, in order; H or OH if unused. Where a SMILES comes first, the peptide text is derived from it. Bridges are numbered along the chain shown (N, C = ends). [ ]: non-standard residue; d: D form. Acbc(trans-1,3) = O=C([C@H]1C[C@H](N[*:1])C1)[*:2]; Acbc(cis-1,3) = O=C([C@H]1C[C@@H](N[*:1])C1)[*:2]; X1 = O=C([C@@H]1CCC[C@@H]1N[*:1])[*:2]; Orn = NCCC[C@H](N)C(=O)O

Columns and labels:
[1] = Serum stability assay (LC/MS); type: in vitro ADME, human; conditions: for half-life: human
Protocol: Binding affinities of IA1 and IA2 against IFNGR1 were evaluated by surface plasmon resonance (SPR) (Table 1 and SI Figure S6A). […] To investigate the contribution of the N-terminal [yVPβ^1RR] motif and β^1 residue in IA1, three scrambled peptides IA1s1–3 and a variant IA1β^14A were synthesized and evaluated. […] We next evaluated inhibitory activities of IA1 and IA2 against the ligand–receptor PPI between IFN-γ and IFNGR1 using AlphaLISA (Table 1 and SI Figure S7).[37] […] We also determined the serum half-lives of IA1 and IA2, considering peptidase resistance as an important factor for therapeutic peptides.[24] A sample peptide and a peptidase-resistant internal standard peptide were coincubated in human serum at 37 °C, and the relative amount of the remaining sample peptide was estimated by LC/MS. […]
10–200 μM synthetic peptide and 5 μM serum-resistant internal standard peptide consisting only of D-amino acids (NH2-PEG5-wstndwstnd-PEG5-CONH2)3 were mixed and incubated in human serum (Cosmo Bio, 12181201) at 37 °C for up to 120 h. At each time point, 4 μL of the mixture was removed and quenched by adding 12 μl methanol. Following centrifugation (15,000 g, 4 °C, 5 min), 10 μL of the supernatant was mixed with 40 μl of 1% (v/v) TFA. Following centrifugation (15,000 g, 4 °C, 5 min), the supernatant was collected for LC/MS analysis, which used a reverse-phase column (ACQUITY UPLC BEH C18, 1.7 μm, 2.1 × 150 mm; Waters) and a Xevo G2-XS QTof system (Waters) with a linear gradient from 1% B to 61% B. Buffer A was water with 0.1% (v/v) formic acid; buffer B was acetonitrile with 0.1% (v/v) formic acid. The percentages of remaining peptides were determined by the peak area integration of the chromatograms. For tandem mass spectrometry, MS/MS spectra were acquired with a 0.2 s scan time, with 10−30 eV collision energy. The obtained LC/MS data was analyzed using MassLynx 4.1 (Waters). […]

[2] = target: T1, Fc-tagged human IFNGR1 (Homo sapiens, UniProt P15260); test: Binding kinetics and affinity to IFNGR1 by surface plasmon resonance (SPR); conditions: SPR, 25 °C, 1:1 binding model; for Kd: read-out: KD; for kon: single-cycle kinetics, read-out: ka
T1 construct: purchased ACROBiosystems
T1 sequence (P15260 18-489): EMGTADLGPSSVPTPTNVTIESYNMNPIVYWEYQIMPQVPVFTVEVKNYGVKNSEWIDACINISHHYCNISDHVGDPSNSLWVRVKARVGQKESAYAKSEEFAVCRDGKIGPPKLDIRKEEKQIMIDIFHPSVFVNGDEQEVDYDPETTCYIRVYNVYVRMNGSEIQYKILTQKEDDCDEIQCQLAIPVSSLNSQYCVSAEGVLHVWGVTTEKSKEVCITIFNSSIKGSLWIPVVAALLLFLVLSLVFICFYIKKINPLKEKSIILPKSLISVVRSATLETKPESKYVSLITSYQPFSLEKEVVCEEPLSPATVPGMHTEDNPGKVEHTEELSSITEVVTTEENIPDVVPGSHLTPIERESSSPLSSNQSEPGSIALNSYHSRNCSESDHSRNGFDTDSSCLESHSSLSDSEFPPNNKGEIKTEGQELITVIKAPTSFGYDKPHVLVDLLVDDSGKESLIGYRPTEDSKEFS
Outline: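 Fc-tagged IFNGR1 captured on a protein G chip (1,200–1,600 RU), 25 °C, running buffer 10 mM Tris-HCl pH 8.0, 150 mM NaCl, 0.05% Tween 20, 0.1% DMSO. Single-cycle kinetics with five twofold-diluted peptide concentrations at 30 μL/min. Sensorgrams fitted to a 1:1 binding model for kinetic constants and affinity.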

[3] = target: T2, IFN-γ/IFNGR1 protein–protein interaction (Homo sapiens, UniProt P15260); test: IFNGR1 inhibition assay using AlphaLISA; type: biochemical; conditions: four-parameter dose–response fit, n = 3
T2 construct: purchased ACROBiosystems
T2 sequence (P15260 18-245 limits assumed): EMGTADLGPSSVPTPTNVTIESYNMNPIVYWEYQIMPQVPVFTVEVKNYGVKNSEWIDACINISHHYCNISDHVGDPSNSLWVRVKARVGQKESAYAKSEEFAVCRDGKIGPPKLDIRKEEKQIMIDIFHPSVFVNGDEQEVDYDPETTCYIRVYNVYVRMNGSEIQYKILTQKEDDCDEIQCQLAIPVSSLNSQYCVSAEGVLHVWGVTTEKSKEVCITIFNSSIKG
Protocol: IFNGR1 inhibition assay using AlphaLISA
The inhibitory activity of peptides against IFN-γ/IFNGR1 protein–protein interaction (PPI) was determined by AlphaLISA.5 Peptides, proteins, and beads were diluted in AlphaLISA immunoassay buffer (PerkinElmer, AL000C). 3.6 μL of 5 nM Fc-tagged IFNGR1 and 3.6 μL of synthetic peptides were mixed in AlphaPlate-384 Shallow Well (PerkinElmer) and preincubated at 25 °C for 10 min. 3.6 μL of 15 nM biotin-tagged IFN-γ was then added to the mix and incubated at 25 °C for 20 min. 3.6 μL each human IgG acceptor beads (PerkinElmer) and streptavidin donor beads (PerkinElmer) were added to the above mix and incubated at 25 °C for 30 min in dark place. Emission at 615 nm was measured […]
by EnSpire Multimode Plate Reader (PerkinElmer). The fraction of bound IFN-γ/IFNGR1 was calculated by the intensity of emission in the presence of peptide divided by that in the absence of […]
peptide. […]
Puromycin. Normocin, Blasticidin, Zeocin, and Puromycin were excluded when conducting the experiments. To evaluate the cellular activity of peptides, peptide mixtures were added to 50,000 cells/well in a flat-bottom 96-well plate and pre-incubated for 30 min at 37 °C before stimulation.
Subsequently, 1 ng/mL of recombinant IFN-γ (InvivoGen) was added to each well in a final reaction volume of 200 μL, followed by incubation for 20 h at 37 °C. 20 μL of supernatants from the induced cells was added to 180 μL Q U A N T I-Blue TM solution (InvivoGen). After further incubation for 3 h at 37 °C, the expression levels of the secreted embryonic alkaline phosphatase (SEAP) were determined by reading the O.D. at 650 nm on a Tecan M1000 PRO microplate reader (Tecan Group) and normalized to the non-treated well. IC50 value was analyzed by a normalized dose-response curve fitting by using GraphPad Prism 9.
HEK-DualTM IFN-γ cells were used for the cell viability assay. 10,000 cells/well were added to each well in a flat-bottom 96-well plate. After 24 h, peptide mixtures were added to each well in a final volume of 100 μL. After further incubation for 24 h, 10 μL CCK-8 reagent (Dojindo) was added to […]

[4] = test system: HEK-Dual IFN-γ cells; test: Cell viability assay (CCK-8); conditions: up to 50 μM, 24 h incubation
[5] = human serum, 37 °C, LC/MS, relative to internal standard peptide, n = 3, read-out: half-life in human serum (t1/2) (converted)

Row | Structure (SMILES) | half-life [1, 5] | Kd [2] | kon [2] | IC50 [3] | half-life in human serum (t1/2) ([1]; human serum, 37 °C, LC/MS, relative to internal standard peptide, n = 3) | half-life ([1]; serum, half-life in human serum (t1/2)) | cytotoxicity [4]
1 | CC(C)[C@@H]1NC(=O)[C@@H](Cc2ccc(O)cc2)NC(=O)CSC[C@H](C(N)=O)NC(=O)[C@H](CC(N)=O)NC(=O)[C@H](Cc2c[nH]cn2)NC(=O)[C@H](CCCNC(=N)N)NC(=O)[C@H]2C[C@H](C2)NC(=O)[C@H]([C@@H](C)O)NC(=O)[C@H](Cc2c[nH]cn2)NC(=O)[C@@H]2CCCN2C(=O)[C@H](CO)NC(=O)[C@H](CCCNC(=N)N)NC(=O)[C@H](CCCNC(=N)N)NC(=O)[C@@H]2CCC[C@@H]2NC(=O)[C@@H]2CCCN2C1=O [IB5γ^211γ^1, ^AcyVPβ^1RRSPHTγ^1RHNc-NH2] ({CH2CO}-[dY]VP[X1]RRSPHT[Acbc(cis-1,3)]RHN[dC]-NH2; thioether N-15) | 2040 ± 120 min | 17 ± 5 nM | 320000 ± 50000 M⁻¹ s⁻¹ | 27 ± 4 nM |  |  | none of them exhibited notable cytotoxicity up to 50 μM
2 | CC(C)[C@@H]1NC(=O)[C@@H](Cc2ccc(O)cc2)NC(=O)CSC[C@H](C(N)=O)NC(=O)[C@H](CC(N)=O)NC(=O)[C@H]2C[C@H](C2)NC(=O)[C@H](CCCN)NC(=O)[C@@H]2CCCN2C(=O)[C@H]([C@@H](C)O)NC(=O)[C@H](CCCN)NC(=O)[C@H](CCCN)NC(=O)[C@H](CO)NC(=O)[C@H](CCCNC(=N)N)NC(=O)[C@H](CCCNC(=N)N)NC(=O)[C@@H]2CCC[C@@H]2NC(=O)[C@@H]2CCCN2C1=O [IB4γ^213γ^1Orn, ^AcyVPβ^1RRSOOTPOγ^1Nc-NH2] ({CH2CO}-[dY]VP[X1]RRS[Orn][Orn]TP[Orn][Acbc(cis-1,3)]N[dC]-NH2; thioether N-15) | 2940 ± 240 min | 12 ± 1 nM | 4.7e+06 ± 600000 M⁻¹ s⁻¹ | 15 ± 5 nM |  |  | none of them exhibited notable cytotoxicity up to 50 μM
3 | CC(C)[C@@H]1NC(=O)[C@@H](Cc2ccc(O)cc2)NC(=O)CSC[C@H](C(N)=O)NC(=O)[C@H](CCCNC(=N)N)NC(=O)[C@H](CO)NC(=O)[C@H](CCCNC(=N)N)NC(=O)[C@H](Cc2c[nH]cn2)NC(=O)CNC(=O)[C@H]2C[C@@H](C2)NC(=O)[C@H](Cc2c[nH]cn2)NC(=O)[C@H](CC(N)=O)NC(=O)[C@H](CCCNC(=N)N)NC(=O)[C@H](CCCNC(=N)N)NC(=O)[C@@H]2CCC[C@@H]2NC(=O)[C@H](C)NC1=O [IB1γ^19γ^2, ^AcyVAβ^1RRNHγ^2GHRSRc-NH2] ({CH2CO}-[dY]VA[X1]RRNH[Acbc(trans-1,3)]GHRSR[dC]-NH2; thioether N-15) | 46.2 ± 1.2 min | 47 ± 15 nM | 250000 ± 250000 M⁻¹ s⁻¹ | 550 ± 30 nM |  |  | 
4 | CC(C)[C@@H]1NC(=O)[C@@H](Cc2ccc(O)cc2)NC(=O)CSC[C@H](C(N)=O)NC(=O)[C@H](CC(N)=O)NC(=O)[C@H](C)NC(=O)[C@H](CCCNC(=N)N)NC(=O)[C@@H]2CCCN2C(=O)[C@H]([C@@H](C)O)NC(=O)[C@H](CCCNC(=N)N)NC(=O)[C@H](CCCNC(=N)N)NC(=O)[C@H](CO)NC(=O)[C@H](CCCNC(=N)N)NC(=O)[C@H](CCCNC(=N)N)NC(=O)[C@@H]2CCC[C@@H]2NC(=O)[C@@H]2CCCN2C1=O [IB4γ^213A, ^AcyVPβ^1RRSRRTPRA Nc-NH2] ({CH2CO}-[dY]VP[X1]RRSRRTPRAN[dC]-NH2; thioether N-15) | 27.6 ± 3 min | 8.2 ± 1.4 nM | 790000 ± 330000 M⁻¹ s⁻¹ | 7.8 ± 1.6 nM |  |  | 

Further molecules by falling Kd [2], results first:

Row | half-life [1, 5] | Kd [2] | kon [2] | IC50 [3] | half-life in human serum (t1/2) ([1]; human serum, 37 °C, LC/MS, relative to internal standard peptide, n = 3) | half-life ([1]; serum, half-life in human serum (t1/2)) | Structure (SMILES) | cytotoxicity [4]
5 |  | 34 ± 5 nM | 950000 ± 680000 M⁻¹ s⁻¹ | 70 ± 4 nM |  | 2520 ± 120 min | CC(C)[C@@H]1NC(=O)[C@@H](Cc2ccc(O)cc2)NC(=O)CSC[C@H](C(N)=O)NC(=O)[C@H](C)NC(=O)[C@H](CO)NC(=O)[C@H](CCCN)NC(=O)[C@H](CCCN)NC(=O)CNC(=O)[C@H]2C[C@H](C2)NC(=O)[C@H](Cc2c[nH]cn2)NC(=O)[C@H](CC(N)=O)NC(=O)[C@H](CCCNC(=N)N)NC(=O)[C@H](CCCNC(=N)N)NC(=O)[C@@H]2CCC[C@@H]2NC(=O)[C@H](C)NC1=O [IB3Orn, ^AcyVAβ^1RRNHγ^1GOOSAc-NH2] ({CH2CO}-[dY]VA[X1]RRNH[Acbc(cis-1,3)]G[Orn][Orn]SA[dC]-NH2; thioether N-15) | 
6 | 22.2 min | 6.1 ± 2.2 nM | 210000 ± 70000 M⁻¹ s⁻¹ | 10 ± 1 nM | 42.6 ± 2.4 min |  | CC(C)[C@@H]1NC(=O)[C@@H](Cc2ccc(O)cc2)NC(=O)CSC[C@H](C(N)=O)NC(=O)[C@H](CC(N)=O)NC(=O)[C@H]2C[C@H](C2)NC(=O)[C@H](CCCNC(=N)N)NC(=O)[C@@H]2CCCN2C(=O)[C@H]([C@@H](C)O)NC(=O)[C@H](CCCNC(=N)N)NC(=O)[C@H](CCCNC(=N)N)NC(=O)[C@H](CO)NC(=O)[C@H](CCCNC(=N)N)NC(=O)[C@H](CCCNC(=N)N)NC(=O)[C@@H]2CCC[C@@H]2NC(=O)[C@@H]2CCCN2C1=O [IB4γ^213γ^1, ^AcyVPβ^1RRSRRTPRγ^1Nc-NH2] ({CH2CO}-[dY]VP[X1]RRSRRTPR[Acbc(cis-1,3)]N[dC]-NH2; thioether N-15) | 
